Measured values taken from publication PMC2644789, “Dissection of Kinesin's Processivity” (PLoS ONE, 2009).

B1: NcKin (NcKin436; wildtype reference) (Neurospora crassa OR74A) (protein)
chain: MSSSANSIKVVARFRPQNRVEIESGGQPIVTFQGPDTCTVDSKEAQGSFTFDRVFDMSCKQSDIFDFSIKPTVDDILNGYNGTVFAYGQTGAGKSYTMMGTSIDDPDGRGVIPRIVEQIFTSILSSAANIEYTVRVSYMEIYMERIRDLLAPQNDNLPVHEEKNRGVYVKGLLEIYVSSVQEVYEVMRRGGNARAVAATNMNQESSRSHSIFVITITQKNVETGSAKSGQLFLVDLAGSEKVGKTGASGQTLEEAKKINKSLSALGMVINALTDGKSSHVPYRDSKLTRILQESLGGNSRTTLIINCSPSSYNDAETLSTLRFGMRAKSIKNKAKVNAELSPAELKQMLAKAKTQITSFENYIVNLESEVQVWRGGETVPKEKWVPPLELAITPSKSASTTARPSTPSRLLPESRAETPAISDRAGTPSLPLDKDE
notes: C-terminally truncated NcKin436 (motor, neck-linker, neck coiled coil, partial stalk), expressed from pT7 vector; C-terminal reactive-cysteine peptide … or hTail; dimer

How the values were obtained:
Type in all cases: biochemical, Neurospora crassa
Head3/Neck1 [1] = test system: T1, Head3/Neck1; assay: coupled enzymatic steady-state ATPase assay; conditions: microtubule-activated (pig brain tubulin), 12.5 mM Aces-KOH, 25 mM potassium acetate, 5 mM MgCl2, EGTA, pH 6.8, 22°C; read-out: Steady state ATPase / KM,ATP
T1 construct: gene NcKin3; fusion in one polypeptide: NcKin3 residues 1-429 (motor and neck-linker) replacing the head of NcKin436 (NcKin head elsewhere 1-342); C-terminal PSIVHRKCF (cys) or hTail; dimer; with Kinesin heavy chain
Text: coupled enzymatic steady-state ATPase assay on Head3/Neck1

Head3/Neck1 [2] = test system: T1, Head3/Neck1; assay: stopped-flow light scattering, ATP-induced microtubule detachment; conditions: dissociation of preformed apyrase-treated kinesin-microtubule complex, 0.4 µM complex, 0-1000 µM ATP; read-out: Detachment / K0.5,ATP
Text: stopped-flow light scattering, ATP-induced microtubule detachment on Head3/Neck1

Head1/Neck3 = test system: T2, Head1/Neck3; assay: coupled enzymatic steady-state ATPase assay; conditions: microtubule-activated (pig brain tubulin), 12.5 mM Aces-KOH, 25 mM potassium acetate, 5 mM MgCl2, EGTA, pH 6.8, 22°C; read-out: Steady state ATPase / KM,ATP
T2 construct: gene NcKin; fusion in one polypeptide: NcKin residues 1-342 (motor and neck-linker) replacing the N-terminal 427 residues of NcKin3_558; C-terminal PSIVHRKCF (cys) or hTail; dimer; with Kinesin-3 motor protein NcKin3
Text: coupled enzymatic steady-state ATPase assay on Head1/Neck3

[3] = substrate: Nc1ncnc2c1ncn2[C@@H]1O[C@H](COP(=O)(O)OP(=O)(O)OP(=O)(O)O)[C@@H](O)[C@H]1O; assay: coupled enzymatic steady-state ATPase assay; conditions: microtubule-activated (pig brain tubulin), 12.5 mM Aces-KOH, 25 mM potassium acetate, 5 mM MgCl2, EGTA, pH 6.8, 22°C
Text: coupled enzymatic steady-state ATPase assay on NcKin (NcKin436; wildtype reference)

Molecule | Km (Head3/Neck1 [1]) | Km (Head3/Neck1 [2]) | Km (Head1/Neck3) | Km [3] | kcat [3]
Nc1ncnc2c1ncn2[C@@H]1O[C@H](COP(=O)(O)OP(=O)(O)OP(=O)(O)O)[C@@H](O)[C@H]1O [ATP] | 49.1 ± 1.3 µM | 105 ± 26.6 µM | 33.1 ± 4.6 µM |  | 
B1 |  |  |  | 64.5 ± 20.4 µM | 66.9 ± 18.1 s⁻¹
